“And” between values parts separate entries of the source, which are not always exact repeats. Identical values can stand only once.
Legend:
[1] = Acridine orange self-association (AO-AO dimer), spectrofluorometry λem 530 nm; format: binding; conditions: hydrochloride
Experimental: Association constants were calculated using a modification of an equation described by Zaini et al. (1999) to determine equilibrium constants for weakly bound complexes by absorbance spectrophotometry. By definition K=Xd/(Xm* Xm), where K is the binding constant Kassoc, Xd is the concentration of the AO dimer and Xm is the concentration of the AO monomer. Conservation of mass gives Xt=Xm+2*Xd, where Xt is the total concentration of AO in solution. Rearranging the conservation of mass equation gives Xm=Xt−2*Xd, and substituting into the equation for Kassoc and rearranging gives Equation 4: Kassoc(Xt*Xt−4*Xt*Xd+4*Xd*Xd)−Xd=0 EQUATION 4:
Rearranging gives: Xd*Xd−(Xt+1/(4*.Kassoc)*Xd+Xt*Xt/4=0 EQUATION5:
Applying the quadratic formula (X=[−B±SQRT(B^2−4AC]/2A) to Equation 3-5 and taking a physically reasonable root gives Equation 3-6: Xd=[Xt+1/(4*K)−SQRT(Xt/(2*K)+1/[…])]/2 EQUATION 6:
Where SQRT ( ) indicates taking the square root of the content of the parentheses. The fluorescence values at λem 530 nm (F530) is a function of Xt and F530=Xd*ε, where “ε” is the fluorescence yield of the dimer. The equation was solved by non-linear least squares using Prism™ software and binding constants determined. Concentrations of the reactants were adjusted for dilution whereas AO concentrations are reported without adjustment for dilution. Fluorescence values (fi) are reported as raw data normalized to scale and not adjusted by a dilution factor following aliquot additions. Absorbance data taken at 468 nm was also used to calculate the Kassoc for the AO-AO dimer using Equation 6.
The error bars shown standard deviation unless obscured by legend symbols (n=4). The results also indicate the effect of a physiological concentration of NaCl [150 mM] on the fluorescence of AO at both λem 530 nm (green) and λem 635 nm (red) over a range of AO concentrations from 0.5 μM to 10.0 μM. At an AO concentration of between 5-6 μM, the amplitude of green fluorescence at λem 530 nm increases abruptly. The red fluorescence (λem 635 nm) also increases abruptly between 5-6 μM. However, the magnitude of the increase at λem 635 nm is proportionally less than that found at λem 530 nm. As the concentration of AO increases from 5 μM to 6 μM, the mean fluorescence values were changed from 457±16 to 5,197 ±289 at λem 530 nm and from 174±4 to 1,371±41 at λem 635 nm (n=4). […] The example shown in FIG. 3-2B depicts the binding plot calculated at λem 530 nm for the molecular association of AO with itself in the absence of and in the presence of NaCl. The association constants (Kassoc) for AO derived from these two plots are 118,000±16,120 M^−1 (R^2=0.98) in the presence of NaCl [150 mM] and 37,410±4,758 M^−1(R^2=0.97) in the absence of NaCl. Error bars denote standard deviation unless hidden by legend symbols (n=4). The presence of 150 mM NaCl has no significant effect on the fluorescence intensity of AO at either λem 530 nm or λem 635 nm at AO concentrations of 6 μM and above.
Association constants were calculated for AO self-association by assuming the fluorescence values derived at λem 530 nm reflect the extent of dimer formation. Association constants (Kassoc) were calculated from the change in mean fluorescence values (delta fluorescence) at λem 530 nm (see FIG. 3-2B). At AO concentrations from 0.5 μM to 5 μM, Kassoc was determined to be 37,410±4,758 M^−1 (R^2=0.97) in the absence of NaCl and 118,000±16,120 M^−1 (R^2=0.98) in the presence of 150 mM NaCl (see FIG. 3-2B). For AO concentrations >5 μM, the association constants were determined to be 46,700±1,807 M^−1 (R^2=0.99) for AO alone and 41,820±3,671 M^−1 (R^2=0.99) for AO in the presence of NaCl. This indicates a significant AO concentration dependent difference in the association constant in the presence of 150 mM NaCl at low AO concentrations (<5 μM) but not a significant difference at AO concentrations above 5 μM.

[2] = test system: herring sperm dsDNA; test: Acridine orange with dsDNA, spectrofluorometry λem 530 nm; format: binding; conditions: AO-DNA, AO [2 μM], DNA [>20 μM], hydrochloride
Experimental: In another implementation, a spectrofluorometric analysis of the interaction of AO with dsDNA at λex 485 nm and λem 530 nm and 635 nm was also conducted. The interaction of DNA with lower concentrations of AO [2 μM] mimicked the results found at the higher AO concentration of 20 μM for bp:AO ratios of 4:1 and above. The association curve for AO over a series of steadily increasing DNA concentrations ranging from […] of DNA is shown in FIG. 3-8.
The example shown in FIG. 3-8 illustrating the effect of NaCl on the fluorescence of 2 μM AO was determined over a range of bp:AO ratios from 4 to 62.5. The excitation wavelength was 485 nm while emission was monitored at 530 nm. The association constant for 2 μM AO with DNA was determined to be 31,990±310 M^−1 (R^2=0.98) in the absence of NaCl and 31,690±498 M^−1 (R^2=0.96) in the presence of NaCl. Error bars are shown to denote confidence intervals at 95% unless hidden by a data point symbol. The delta fluorescence values were obtained by subtracting the background fluorescence of HEPES buffered AO at 2 μM in the absence of DNA. The association constant for the interaction of AO with DNA was determined to be 31,990±3,190 M^−1.

CN(C)c1ccc2cc3ccc(N(C)C)cc3nc2c1.Cl [AO, 3,6-bis[dimethylamino]acridine hydrochloride]
K ± S.D. ([1]; Fluorescence plus NaCl 150 mM, AO [0.5-5.0 μM]): 118,000±16,120 M^−1 and 118,000 M^−1
K ± S.D. ([1]; Fluorescence plus NaCl 150 mM, AO [0.5-5.0 μM], listed as AO-AO): 118,000 ± 16,120 M^−1
K ± S.D. ([1]; Fluorescence plus NaCl, AO [6.0-10.0 μM]): 41,820±3,671 M^−1
K ± S.D. ([1]; Fluorescence plus NaCl, AO [6.0-10.0 μM], listed as AO-AO): 41,820 ± 3,671 M^−1
K ± S.D. ([1]; Fluorescence, AO [0.5-5.0 μM], absence of NaCl): 37,410±4,758 M^−1 and 37,410 M^−1
K ± S.D. ([1]; Fluorescence, AO [0.5-5.0 μM], absence of NaCl, listed as AO-AO): 37,410 ± 4,758 M^−1
K ± S.D. ([1]; Fluorescence, AO [6.0-10.0 μM], absence of NaCl): 46,700±1,807 M^−1
K ± S.D. ([1]; Fluorescence, AO [6.0-10.0 μM], absence of NaCl, listed as AO-AO): 46,700 ± 1,807 M^−1
K ± S.D. ([2]; Fluorescence plus NaCl): 31,690±498 M^−1 and 31,690±4,980 M^−1
K ± S.D. ([2]; Fluorescence plus NaCl, listed as AO-DNA): 31,690 ± 4,890 M^−1
K ± S.D. ([2]; Fluorescence, absence of NaCl): 31,990±310 M^−1 and 31,990±3,190 M^−1
K ± S.D. ([2]; Fluorescence, absence of NaCl, listed as AO-DNA): 31,990 ± 3,190 M^−1

From patent US7662767B2, “Polynucleotide intercalator interceptors and inhibitors” (Materials Evolution and Development USA, Inc., priority 2000, dated 2010)
